Source: article PMC11129182, “Development of Inhibitors, Probes, and PROTAC Provides a Complete Toolbox to Study PARK7 in the Living Cell” (Journal of Medicinal Chemistry, 2024)
Like-named read-outs stand apart in the source and are kept apart here.

Legend:
PARK7 [1] = target: T1, PARK7 (Homo sapiens, UniProt Q99497); assay: High-throughput screen of the crude compound library, PARK7 fluorescence polarization (FP) assay with FP reagent JYQ-107; format: biochemical; conditions: 1.25 µM, crude compound library, read-out: HTS FP assay %Inhibition (1.25 µM)
T1 sequence (Q99497 1-189): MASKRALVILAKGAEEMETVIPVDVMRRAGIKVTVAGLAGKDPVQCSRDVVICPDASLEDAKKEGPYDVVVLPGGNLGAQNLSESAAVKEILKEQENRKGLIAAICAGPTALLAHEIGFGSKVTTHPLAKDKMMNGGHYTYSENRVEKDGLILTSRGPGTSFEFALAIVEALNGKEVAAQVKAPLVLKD

PARK7 [2] = target: T1, PARK7; assay: Hit validation and pure-compound testing in the PARK7 FP assay with JYQ-107; format: biochemical; conditions: for inhibition at 0.25 µM: read-out: % Inhibition 0.25 µM; for inhibition at 0.5 µM: read-out: % Inhibition 0.5 µM

For N#CN1CC[C@@H](C(=O)Nc2nc3c(s2)CN(C(=O)c2cccc(S(=O)(=O)NCc4cccs4)c2)CC3)C1 [Compound 11], the inhibition at 1.25 µM (PARK7 [1]) was 90%, the inhibition at 0.25 µM (PARK7 [2]; crude compounds) was 49.3% and the inhibition at 0.5 µM (PARK7 [2]; crude compounds) was 77.9%. For the same compound, the inhibition at 1 µM (PARK7 [2]; crude compounds) was 93.6%.

With N#CN1CC[C@@H](C(=O)Nc2nc3c(s2)CN(C(=O)c2cc(-n4ccnc4)ccn2)CC3)C1 [Compound 22] the inhibition at 1.25 µM (PARK7 [1]) was 90.7%, the inhibition at 0.25 µM (PARK7 [2]; crude compounds) was 52.2% and the inhibition at 0.5 µM (PARK7 [2]; crude compounds) was 81%. For the same compound, the inhibition at 1 µM (PARK7 [2]; crude compounds) was 96%.

For N#CN1CC[C@@H](C(=O)Nc2nc3c(s2)CN(C(=O)c2cn(C4CCC4)nn2)CC3)C1 [Compound 30], the inhibition at 1.25 µM (PARK7 [1]) was 89.2%, the inhibition at 0.25 µM (PARK7 [2]; crude compounds) was 52.3% and the inhibition at 0.5 µM (PARK7 [2]; crude compounds) was 75.7%. The inhibition at 1 µM (PARK7 [2]; crude compounds) was 93.6%.

With N#CN1CC[C@@H](C(=O)Nc2nc3c(s2)CN(C(=O)c2cccc(S(=O)(=O)NC4CC4)c2)CC3)C1 [Compound 59, (R)-1-Cyano-N-(5-(3-(N-cyclopropylsulfamoyl)benzoyl)-4,5,6,7-tetrahydrothiazolo[5,4-c]pyridin-2-yl)pyrrolidine-3-carboxamide] the inhibition at 1.25 µM (PARK7 [1]) was 89.7%, the inhibition at 0.25 µM (PARK7 [2]; crude compounds) was 63.1% and the inhibition at 0.5 µM (PARK7 [2]; crude compounds) was 84.4%. For the same compound, the inhibition at 1 µM (PARK7 [2]; crude compounds) was 97.5%, the inhibition at 0.25 µM (PARK7 [2]; pure compounds) was 74.8% and the inhibition at 1 µM (PARK7 [2]; pure compounds) was 93.6%.

N#CN1CC[C@@H](C(=O)Nc2nc3c(s2)CN(C(=O)c2cc(-c4ccc(Cl)s4)[nH]n2)CC3)C1 [Compound 64] showed an inhibition at 1.25 µM (PARK7 [1]) of 90%, an inhibition at 0.25 µM (PARK7 [2]; crude compounds) of 33.1% and an inhibition at 0.5 µM (PARK7 [2]; crude compounds) of 63.2%. It also gave an inhibition at 1 µM (PARK7 [2]; crude compounds) of 89.5%.

Compound N#CN1CC[C@@H](C(=O)Nc2nc3c(s2)CN(C(=O)c2cn(CCc4ccccc4)nn2)CC3)C1 [Compound 76] has an inhibition at 1.25 µM (PARK7 [1]) of 91.3%, an inhibition at 0.25 µM (PARK7 [2]; crude compounds) of 54.4% and an inhibition at 0.5 µM (PARK7 [2]; crude compounds) of 78%. The inhibition at 1 µM (PARK7 [2]; crude compounds) was 92.1%.

For CCC1(Cn2cc(C(=O)N3CCc4nc(NC(=O)[C@@H]5CCN(C#N)C5)sc4C3)nn2)COC1 [Compound 83], the inhibition at 1.25 µM (PARK7 [1]) was 92.3%, the inhibition at 0.25 µM (PARK7 [2]; crude compounds) was 47.6% and the inhibition at 0.5 µM (PARK7 [2]; crude compounds) was 73.1%. The inhibition at 1 µM (PARK7 [2]; crude compounds) was 92.7%.

Compound N#CN1CC[C@@H](C(=O)Nc2nc3c(s2)CN(C(=O)c2cccc(COc4cccc(F)c4)c2)CC3)C1 [Compound 110] has an inhibition at 1.25 µM (PARK7 [1]) of 94%, an inhibition at 0.25 µM (PARK7 [2]; crude compounds) of 56.4% and an inhibition at 0.5 µM (PARK7 [2]; crude compounds) of 78.2%. The inhibition at 1 µM (PARK7 [2]; crude compounds) was 93.5%.

Compound Cc1nc(-c2cnn(C)c2)sc1C(=O)N1CCc2nc(NC(=O)[C@@H]3CCN(C#N)C3)sc2C1 [Compound 112] has an inhibition at 1.25 µM (PARK7 [1]) of 91.1%, an inhibition at 0.25 µM (PARK7 [2]; crude compounds) of 54.6% and an inhibition at 0.5 µM (PARK7 [2]; crude compounds) of 78%. The inhibition at 1 µM (PARK7 [2]; crude compounds) was 93.1%.

Cc1ccc(-c2cc(C(=O)N3CCc4nc(NC(=O)[C@@H]5CCN(C#N)C5)sc4C3)[nH]n2)o1 [Compound 121] gave an inhibition at 1.25 µM (PARK7 [1]) of 90.5%, an inhibition at 0.25 µM (PARK7 [2]; crude compounds) of 52% and an inhibition at 0.5 µM (PARK7 [2]; crude compounds) of 77.6%. It also gave an inhibition at 1 µM (PARK7 [2]; crude compounds) of 93.8%.

With N#CN1CC[C@@H](C(=O)Nc2nc3c(s2)CN(C(=O)c2cccc(-c4ncn[nH]4)c2)CC3)C1 [Compound 131] the inhibition at 1.25 µM (PARK7 [1]) was 91%, the inhibition at 0.25 µM (PARK7 [2]; crude compounds) was 66.1% and the inhibition at 0.5 µM (PARK7 [2]; crude compounds) was 84.3%. For the same compound, the inhibition at 1 µM (PARK7 [2]; crude compounds) was 96.9%.

Compound COc1ccc(C(=O)N2CCc3nc(NC(=O)[C@@H]4CCN(C#N)C4)sc3C2)cc1S(=O)(=O)N1CCCCCC1 [Compound 133, (R)-N-(5-(3-(Azepan-1-ylsulfonyl)-4-methoxybenzoyl)-4,5,6,7-tetrahydrothiazolo[5,4-c]pyridin-2-yl)-1-cyanopyrrolidine-3-carboxamid] has an inhibition at 1.25 µM (PARK7 [1]) of 90.8%, an inhibition at 0.25 µM (PARK7 [2]; crude compounds) of 76.3% and an inhibition at 0.5 µM (PARK7 [2]; crude compounds) of 89.1%. The inhibition at 1 µM (PARK7 [2]; crude compounds) was 98.8%, the inhibition at 0.25 µM (PARK7 [2]; pure compounds) was 77.9% and the inhibition at 1 µM (PARK7 [2]; pure compounds) was 95.4%.

N#CN1CC[C@@H](C(=O)Nc2nc3c(s2)CN(C(=O)c2cc(-c4ccco4)on2)CC3)C1 [Compound 139] was tested, and the inhibition at 1.25 µM (PARK7 [1]) was 91.5%, the inhibition at 0.25 µM (PARK7 [2]; crude compounds) was 58.2% and the inhibition at 0.5 µM (PARK7 [2]; crude compounds) was 80.9%. For the same compound, the inhibition at 1 µM (PARK7 [2]; crude compounds) was 94.3%.

Work on N#CN1CC[C@@H](C(=O)Nc2nc3c(s2)CN(C(=O)c2cc([N+](=O)[O-])ccc2Br)CC3)C1 [compound 441] yielded an inhibition at 1.25 µM (PARK7 [1]; FP reagent JYQ-107) of 81.4%.

With N#CN1CC[C@@H](C(=O)Nc2nc3c(s2)CN(C(=O)c2c(F)c(F)c(O)c(F)c2F)CC3)C1 [compound 442] the inhibition at 1.25 µM (PARK7 [1]; FP reagent JYQ-107) was 51.4%.

For CC(=O)CCC(=O)N1CCc2nc(NC(=O)[C@@H]3CCN(C#N)C3)sc2C1 [compound 443], the inhibition at 1.25 µM (PARK7 [1]; FP reagent JYQ-107) was 72.8%.

For N#CN1CC[C@@H](C(=O)Nc2nc3c(s2)CN(C(=O)c2cccc(B(O)O)c2)CC3)C1 [compound 444], the inhibition at 1.25 µM (PARK7 [1]; FP reagent JYQ-107) was 68.5%.

N#CN1CC[C@@H](C(=O)Nc2nc3c(s2)CN(C(=O)CCc2cccnc2)CC3)C1 [compound 445] showed an inhibition at 1.25 µM (PARK7 [1]; FP reagent JYQ-107) of 62.7%.

For N#CN1CC[C@@H](C(=O)Nc2nc3c(s2)CN(C(=O)c2ccc(F)c(F)c2)CC3)C1 [compound 446], the inhibition at 1.25 µM (PARK7 [1]; FP reagent JYQ-107) was 74.4%.

In the case of CC(C)(C)OC(=O)NC1(C(=O)N2CCc3nc(NC(=O)[C@@H]4CCN(C#N)C4)sc3C2)CC1 [compound 447], the inhibition at 1.25 µM (PARK7 [1]; FP reagent JYQ-107) is reported as 68.7%.

With N#CN1CC[C@@H](C(=O)Nc2nc3c(s2)CN(C(=O)c2ccc(CNC(=O)OCC4c5ccccc5-c5ccccc54)cc2)CC3)C1 [compound 448] the inhibition at 1.25 µM (PARK7 [1]; FP reagent JYQ-107) was 63.9%.

With CN(C)c1ccc(C(=O)N2CCc3nc(NC(=O)[C@@H]4CCN(C#N)C4)sc3C2)cc1 [compound 449] the inhibition at 1.25 µM (PARK7 [1]; FP reagent JYQ-107) was 82.9%.

Work on CC(C)(C)OC(=O)N1C[C@@H](O)C[C@@H]1C(=O)N1CCc2nc(NC(=O)[C@@H]3CCN(C#N)C3)sc2C1 [compound 450] yielded an inhibition at 1.25 µM (PARK7 [1]; FP reagent JYQ-107) of 68.1%.

Work on N#CN1CC[C@@H](C(=O)Nc2nc3c(s2)CN(C(=O)c2ccc(N4CCCC4)cc2F)CC3)C1 [compound 451] yielded an inhibition at 1.25 µM (PARK7 [1]; FP reagent JYQ-107) of 82.6%.

Work on COc1ccccc1-c1cc(C(=O)N2CCc3nc(NC(=O)[C@@H]4CCN(C#N)C4)sc3C2)n[nH]1 [compound 452] yielded an inhibition at 1.25 µM (PARK7 [1]; FP reagent JYQ-107) of 84.6%.
